In patent US20240210412A1, “SULFONYL-TRIAZOLE COMPOUNDS USEFUL AS LIGANDS AND INHIBITORS OF PROSTAGLANDIN REDUCTASE 2” (University of Virginia Patent Foundation, priority 2021, published 2024):

Experiments:
[1] = molecular target: T1, PTGR2 (Homo sapiens, UniProt Q8N8N7); assay: PTGR2 enzymatic (15-keto-PGE2 substrate) assay after live-cell treatment; assay type: biochemical; settings: cells treated 2 h 37° C., up to 25 μM; 15-keto-PGE2 20 μM
T1 construct: host or cells: HEK293T
Protocol: PTGR2 enzymatic assay was performed based on a previously described chromogenic method^[17,81]. HEK293T cells expressing recombinant PTGR2 were treated with DMSO vehicle or indicated concentrations of SuTEx ligand for 2 hrs. The cells were washed with cold PBS twice and harvested. The proteomes were lysed in PBS by sonication and fractionated (100,000×g, 45 min, 4° C.). Soluble proteome (0.5 mg) was incubated for 30 min at 37° C. with 1 mM of EDTA, DTT, NADPH and 20 μM 15-Keto PGE2 in 0.1 M Tris-HCl (PH 7.5) (final volume of 230 μL) and the substrate consumed was determined by adding 20 μL 20 N NaOH, mixing and measuring absorbance at 500 nm after 5 min.
The effect of liganding tyrosine sites on the biochemical function of PTGR2 was investigated. PTGR2 has a role in metabolism and there is an ability to measure its biochemical activity using an established 15-keto-PGE2 substrate assay^[17-18]. In brief, recombinant PTGR2 expressing HEK293T cells were treated with DMSO, HHS-0701, or HHS-0101 (negative control) for 2 hours at 37° C. Cells were lysed and the soluble fractions incubated in an assay buffer containing 15-keto-PGE2 (20 μM) for 30 minutes at 37° C. After quenching reactions in NaOH, the amount of substrate remaining was quantified by absorbance of a red chromophore that forms in an alkaline solution of 15-keto-PGE2^[17-18]. […]

[2] = test system: P22626; assay: SILAC LC-MS ABPP; assay type: cell-based, human; settings: 25 μM 2 h, live DM93 cells
Protocol: (§1) Cells were grown to 90-95% confluence before being washed once with warm, sterile DPBS (1×, 5 mL), followed by addition of 10 mL of serum-free media (supplemented with 1% L-glutamine) containing either DMSO or SuTEx fragment (in DMSO) was added. Light cells were treated with DMSO vehicle while the heavy cells were treated with DMSO or SuTEx fragment (in DMSO) and incubated for 2 hrs. After 2 hrs, the cells were treated with SuTEx alkyne probe (HHS475, 10 μL of 1000× DMSO stock) and incubated for an additional 2 hrs. The media was aspirated and cells washed with cold PBS (5 mL) and harvested. Cells were spun at 500×g for 5 min at 4° C. followed by removal of supernatant. Pellets were resuspended in 1 mL of cold DPBS and spun at 1,400×g for 3 min at 4° C. followed by removal of supernatant. The cells were lysed in PBS by sonication and fractionated (100,000×g, 45 min, 4° C.).The light and heavy soluble fractions were diluted to 2.3 mg/mL in PBS and 432 μL were used for analysis (1 mg total protein). The probe-modified proteomes were conjugated to desthiobiotin-PEG3-azide (10 μl of 10 mM stock in DMSO; 200 μM final concentration) using TCEP (10 μl of fresh 50 mM stock in water, 1 mM final concentration), TBTA ligand (33 μl of a 1.7 mM 4:1 t-butanol/DMSO stock, 100 μM final concentration) and CuSO4 (10 μl of 50 mM stock, 1 mM final concentration). Samples were vortexed to mix and incubated for 1 hr at room temperature. The heavy and light proteomes were mixed 1:1 and the subsequent steps, including LC-MS/MS data analysis, were performed as previously described^[8a].
(§2) Coupling cell-based screens with chemical proteomics can facilitate the identification of target protein and binding sites that engage and are irreversibly modified by covalent ligands^[12]. In these assays, covalent ligands block SuTEx activity-based probe (ABP) labeling at protein sites, and the competition of probe labeling can be used to quantify potency and selectivity across the proteome^[10a]. To facilitate quantitative chemical proteomics, DM93 melanoma cells were cultured using stable isotopic labeling by amino acids in cell culture (SILAC)^[13]. Cells cultured in “light” media were treated with dimethyl sulfoxide (DMSO) vehicle while cells cultured in “heavy” media were treated with SuTEx ligand (25 μM, 2 hours, 37° C.). Next, cells were treated with HHS-475 probe (100 μM, 2 hours, 37° C.) followed by lysis and processing of proteomes for analysis. Probe-modified proteins from the soluble fraction were conjugated to a desthiobiotin-azide tag by copper-catalyzed azide-alkyne cycloaddition (CuAAC)^[14] followed by mixing of the light and heavy proteomes. The combined proteomes were digested with trypsin protease to produce probe-modified peptides, followed by enrichment and purification by avidin affinity chromatography. Probe-modified peptides were resolved, identified, and quantified by high-resolution liquid chromatography-tandem mass spectrometry (LC-MS/MS). Resultant data were analyzed as previously described^[8a, 10a]. Table 2, below, lists sites of modification targeted by sulfonyl-triazole compounds HHS-0101, HHS-0201, HHS-0301, HHS-0401, and HHS-0701. The format of the table is as follows: protein Uniprot accession number (see uniprot.org); tyrosine site (amino acid position) modified; treatment (sulfonyl-triazole compound identification number, followed by Y (where if multiple compounds modify the same site, the compounds are separated by vertical lines).

[3] = molecular target: T2, P11216 (Homo sapiens, UniProt P11216); assay: SILAC LC-MS ABPP; assay type: cell-based; settings: 25 μM 2 h, live DM93 cells
T2 construct: endogenous in cells; host or cells: DM93 cells (SILAC)
T2 sequence (P11216 whole entry): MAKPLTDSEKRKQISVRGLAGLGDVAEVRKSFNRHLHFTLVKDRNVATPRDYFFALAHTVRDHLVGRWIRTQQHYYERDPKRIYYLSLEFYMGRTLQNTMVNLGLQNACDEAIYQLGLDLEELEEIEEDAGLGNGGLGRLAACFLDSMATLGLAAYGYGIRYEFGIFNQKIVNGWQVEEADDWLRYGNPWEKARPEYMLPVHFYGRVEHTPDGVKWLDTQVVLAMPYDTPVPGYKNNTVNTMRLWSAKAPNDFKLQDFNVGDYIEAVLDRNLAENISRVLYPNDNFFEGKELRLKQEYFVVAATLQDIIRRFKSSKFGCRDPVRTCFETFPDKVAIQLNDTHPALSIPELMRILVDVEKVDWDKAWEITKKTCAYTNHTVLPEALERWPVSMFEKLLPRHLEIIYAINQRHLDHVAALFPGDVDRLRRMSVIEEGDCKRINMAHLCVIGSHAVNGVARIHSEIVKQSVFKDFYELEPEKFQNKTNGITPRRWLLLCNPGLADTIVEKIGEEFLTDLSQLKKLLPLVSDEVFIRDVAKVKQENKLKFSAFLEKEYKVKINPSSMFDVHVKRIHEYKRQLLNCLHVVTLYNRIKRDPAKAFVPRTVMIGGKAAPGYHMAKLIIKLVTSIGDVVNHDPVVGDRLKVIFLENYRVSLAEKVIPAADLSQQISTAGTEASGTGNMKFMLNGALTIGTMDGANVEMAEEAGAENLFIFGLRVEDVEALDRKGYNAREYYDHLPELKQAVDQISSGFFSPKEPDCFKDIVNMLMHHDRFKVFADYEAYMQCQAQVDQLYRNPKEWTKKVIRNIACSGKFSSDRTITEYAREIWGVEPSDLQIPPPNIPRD
Protocol: as §1, §2

[4] = molecular target: T3, Q9Y6D5 (Homo sapiens, UniProt Q9Y6D5); assay: SILAC LC-MS ABPP; assay type: cell-based; settings: 25 μM 2 h, live DM93 cells
T3 construct: endogenous in cells; host or cells: DM93 cells (SILAC)
T3 sequence (Q9Y6D5 whole entry): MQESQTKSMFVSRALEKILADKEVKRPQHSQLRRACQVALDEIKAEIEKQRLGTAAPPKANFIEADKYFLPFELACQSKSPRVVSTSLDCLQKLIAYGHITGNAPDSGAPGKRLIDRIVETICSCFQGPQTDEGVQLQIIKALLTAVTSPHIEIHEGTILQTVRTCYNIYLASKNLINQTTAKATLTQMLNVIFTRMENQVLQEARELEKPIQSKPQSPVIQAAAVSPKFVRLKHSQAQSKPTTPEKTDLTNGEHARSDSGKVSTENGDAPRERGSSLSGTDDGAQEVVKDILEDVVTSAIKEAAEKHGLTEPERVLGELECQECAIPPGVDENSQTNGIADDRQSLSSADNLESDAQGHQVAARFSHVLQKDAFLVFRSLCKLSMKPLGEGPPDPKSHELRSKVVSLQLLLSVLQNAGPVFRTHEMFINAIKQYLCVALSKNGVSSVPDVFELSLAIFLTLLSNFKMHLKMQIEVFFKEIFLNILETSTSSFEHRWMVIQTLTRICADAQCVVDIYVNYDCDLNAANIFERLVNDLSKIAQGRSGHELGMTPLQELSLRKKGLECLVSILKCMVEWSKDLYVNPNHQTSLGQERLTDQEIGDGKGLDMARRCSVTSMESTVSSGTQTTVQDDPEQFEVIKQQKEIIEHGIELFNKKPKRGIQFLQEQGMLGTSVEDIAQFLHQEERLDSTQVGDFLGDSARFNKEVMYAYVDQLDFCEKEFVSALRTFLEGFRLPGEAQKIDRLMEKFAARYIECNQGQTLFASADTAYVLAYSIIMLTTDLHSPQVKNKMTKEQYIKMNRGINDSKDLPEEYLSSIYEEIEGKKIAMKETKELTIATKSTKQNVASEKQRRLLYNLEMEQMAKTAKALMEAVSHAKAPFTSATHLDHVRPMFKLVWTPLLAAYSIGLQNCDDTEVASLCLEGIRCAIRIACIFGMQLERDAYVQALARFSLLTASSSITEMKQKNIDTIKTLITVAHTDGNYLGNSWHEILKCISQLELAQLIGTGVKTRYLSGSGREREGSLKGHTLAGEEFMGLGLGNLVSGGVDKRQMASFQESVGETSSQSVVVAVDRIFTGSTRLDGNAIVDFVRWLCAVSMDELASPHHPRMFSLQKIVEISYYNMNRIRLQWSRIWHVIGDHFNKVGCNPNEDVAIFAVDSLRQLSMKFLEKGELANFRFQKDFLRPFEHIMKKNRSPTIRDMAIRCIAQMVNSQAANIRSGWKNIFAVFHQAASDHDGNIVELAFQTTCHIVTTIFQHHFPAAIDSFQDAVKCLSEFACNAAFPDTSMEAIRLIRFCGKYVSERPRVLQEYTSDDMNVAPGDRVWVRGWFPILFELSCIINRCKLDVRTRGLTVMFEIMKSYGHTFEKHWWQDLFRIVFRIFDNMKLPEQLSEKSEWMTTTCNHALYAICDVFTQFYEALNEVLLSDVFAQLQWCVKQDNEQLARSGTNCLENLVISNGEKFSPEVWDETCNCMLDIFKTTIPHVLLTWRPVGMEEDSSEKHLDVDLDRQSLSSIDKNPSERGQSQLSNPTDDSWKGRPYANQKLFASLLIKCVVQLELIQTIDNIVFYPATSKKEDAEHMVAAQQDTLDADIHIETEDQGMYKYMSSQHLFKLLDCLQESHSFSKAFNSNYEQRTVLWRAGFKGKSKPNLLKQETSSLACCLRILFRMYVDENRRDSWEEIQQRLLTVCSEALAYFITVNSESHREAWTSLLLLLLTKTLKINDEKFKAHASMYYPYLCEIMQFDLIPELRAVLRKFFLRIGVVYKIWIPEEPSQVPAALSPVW
Protocol: as §1, §2

T1 sequence (Q8N8N7 whole entry): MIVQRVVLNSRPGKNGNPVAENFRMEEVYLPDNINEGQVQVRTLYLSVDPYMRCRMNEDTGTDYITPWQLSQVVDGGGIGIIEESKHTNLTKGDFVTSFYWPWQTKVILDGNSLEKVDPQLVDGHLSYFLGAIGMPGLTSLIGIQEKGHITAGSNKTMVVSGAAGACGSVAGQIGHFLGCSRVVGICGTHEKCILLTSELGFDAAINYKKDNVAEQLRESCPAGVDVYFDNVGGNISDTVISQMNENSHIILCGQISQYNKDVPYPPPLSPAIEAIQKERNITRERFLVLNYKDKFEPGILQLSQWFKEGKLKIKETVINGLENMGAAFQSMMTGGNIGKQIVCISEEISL

O=C(NC1CC1)c1ccc(S(=O)(=O)n2cncn2)cc1 [HHS-0101, 4-((1H-1,2,4-triazol-1-yl)sulfonyl)-N-cyclopropylbenzamide]
inhibition of PTGR2 biochemical activity [1]: No inhibitory activity
liganded tyrosine site 262 [2]: HHS0101.Y (tyrosine sites that showed >80% reductions (SR >5) in probe labeling in cells treated with compounds (liganded sites))
liganded tyrosine site 473 [3]: HHS0101.Y (tyrosine sites that showed >80% reductions (SR >5) in probe labeling in cells treated with compounds (liganded sites))
liganded tyrosine site 1632 [4]: HHS0101.Y|HHS0301.Y|HHS0701.Y (tyrosine sites that showed >80% reductions (SR >5) in probe labeling in cells treated with compounds (liganded sites))

O=C(NCC1CC1)c1ccc(S(=O)(=O)n2cncn2)cc1 [HHS-0201, 4-((1H-1,2,4-triazol-1-yl)sulfonyl)-N-(cyclopropylmethyl)benzamide]
liganded tyrosine site 244 [2]: HHS0201.Y (tyrosine sites that showed >80% reductions (SR >5) in probe labeling in cells treated with compounds (liganded sites))
liganded tyrosine site 247 [2]: HHS0201.Y (tyrosine sites that showed >80% reductions (SR >5) in probe labeling in cells treated with compounds (liganded sites))
liganded tyrosine site 283 [2]: HHS0201.Y (tyrosine sites that showed >80% reductions (SR >5) in probe labeling in cells treated with compounds (liganded sites))
liganded tyrosine site 204 [3]: HHS0201.Y (tyrosine sites that showed >80% reductions (SR >5) in probe labeling in cells treated with compounds (liganded sites))

O=C(NCc1ccccc1)c1ccc(S(=O)(=O)n2cncn2)cc1 [HHS-0401, 4-((1H-1,2,4-triazol-1-yl)sulfonyl)-N-benzylbenzamide]
liganded tyrosine site 97 [4]: HHS0401.Y (tyrosine sites that showed >80% reductions (SR >5) in probe labeling in cells treated with compounds (liganded sites))

O=C(c1ccc(S(=O)(=O)n2cncn2)cc1)N1CCC(c2ccccc2)CC1 [HHS-0701, (4-((1H-1,2,4-triazol-1-yl)sulfonyl)phenyl)(4-phenylpiperidin-1-yl)methanone]
inhibition of PTGR2 biochemical activity [1]: concentration-dependent inhibition of PTGR2 activity
